Measured values: patent publication US20240270821A1, “GIP/GLP1/GCG TRI-RECEPTOR AGONISTS AND USES THEREOF” (priority 2023, published 2024)
Starred links: 1 amine or outer side, 2 acyl side, 3 side chain; linkers in the order of their positions; H or OH if unused. Non-standard residues stand in square brackets, D forms with d. Groups on a side chain read outwards from the residue. *: point of attachment. C18 diacid = O=C(O)CCCCCCCCCCCCCCCCC(=O)*; αMePhe(2-F) = C[C@](N)(Cc1ccccc1F)C(=O)O; γGlu = O=C(O)[C@H](CCC(=O)[*:2])N[*:1]; αMe4Pal = C[C@](N)(Cc1ccncc1)C(=O)O; αMeY = C[C@](N)(Cc1ccc(O)cc1)C(=O)O; 4Pal = N[C@@H](Cc1ccncc1)C(=O)O; αMeL = CC(C)C[C@](C)(N)C(=O)O; Orn = NCCC[C@H](N)C(=O)O; AEEA = NCCOCCOCC(=O)O; Aib = CC(C)(N)C(=O)O

How the values were obtained:
Type in all cases: cell-based
[1] = target: T1, hGLP-1R (Homo sapiens, UniProt P43220); experiment: Functional cAMP activation in the presence of 0.1% casein (no HSA); details: read-out: Relative cAMP EC50, hGLP-1R;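 also: intracellular cAMP rise after 30 min at 37 °C read by HTRF, normalized between buffer only (0%) and maximal control ligand (100%), four-parameter variable-slope fit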
T1 sequence (P43220 24-463): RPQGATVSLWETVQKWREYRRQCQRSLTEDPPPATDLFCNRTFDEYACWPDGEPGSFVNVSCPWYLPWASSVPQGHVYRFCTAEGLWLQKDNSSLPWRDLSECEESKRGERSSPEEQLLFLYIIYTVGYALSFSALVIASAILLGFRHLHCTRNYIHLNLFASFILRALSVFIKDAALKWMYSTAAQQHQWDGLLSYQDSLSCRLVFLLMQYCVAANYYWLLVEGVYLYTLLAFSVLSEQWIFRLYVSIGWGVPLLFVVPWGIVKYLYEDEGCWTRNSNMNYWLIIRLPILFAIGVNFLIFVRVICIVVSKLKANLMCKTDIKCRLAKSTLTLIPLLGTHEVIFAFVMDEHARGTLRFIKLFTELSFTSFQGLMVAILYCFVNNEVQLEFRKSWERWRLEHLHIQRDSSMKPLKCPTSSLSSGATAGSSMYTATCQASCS

[2] = target: T1, hGLP-1R; experiment: Functional cAMP activity in the presence of 1% HSA; details: read-out: cAMP Rel EC50, hGLP-1R
[3] = target: human GcgR (Homo sapiens, UniProt P47871); experiment: Functional cAMP activity in the presence of 1% HSA; details: read-out: cAMP Rel EC50, hGcgR
Chain of human GcgR (P47871 26-477): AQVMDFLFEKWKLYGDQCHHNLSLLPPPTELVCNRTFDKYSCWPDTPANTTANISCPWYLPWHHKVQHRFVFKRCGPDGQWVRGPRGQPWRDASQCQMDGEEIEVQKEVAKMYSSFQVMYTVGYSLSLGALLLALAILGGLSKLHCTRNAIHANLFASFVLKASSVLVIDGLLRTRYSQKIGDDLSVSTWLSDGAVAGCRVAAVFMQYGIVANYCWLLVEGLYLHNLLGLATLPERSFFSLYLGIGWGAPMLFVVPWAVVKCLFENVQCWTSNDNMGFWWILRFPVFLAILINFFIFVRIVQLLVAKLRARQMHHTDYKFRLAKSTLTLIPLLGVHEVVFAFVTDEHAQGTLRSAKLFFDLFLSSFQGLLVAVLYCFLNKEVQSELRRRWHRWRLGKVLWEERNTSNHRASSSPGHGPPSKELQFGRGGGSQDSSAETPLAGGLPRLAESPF

[4] = target: T2, hGIPR (Homo sapiens, UniProt P48546); experiment: Functional cAMP activation in the presence of 0.1% casein (no HSA); details: read-out: Relative cAMP EC50, hGIPR;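 also: intracellular cAMP rise after 30 min at 37 °C read by HTRF against a standard curve, scaled between buffer alone (0%) and top control ligand concentration (100%), four-parameter fit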
T2 sequence (P48546 22-466): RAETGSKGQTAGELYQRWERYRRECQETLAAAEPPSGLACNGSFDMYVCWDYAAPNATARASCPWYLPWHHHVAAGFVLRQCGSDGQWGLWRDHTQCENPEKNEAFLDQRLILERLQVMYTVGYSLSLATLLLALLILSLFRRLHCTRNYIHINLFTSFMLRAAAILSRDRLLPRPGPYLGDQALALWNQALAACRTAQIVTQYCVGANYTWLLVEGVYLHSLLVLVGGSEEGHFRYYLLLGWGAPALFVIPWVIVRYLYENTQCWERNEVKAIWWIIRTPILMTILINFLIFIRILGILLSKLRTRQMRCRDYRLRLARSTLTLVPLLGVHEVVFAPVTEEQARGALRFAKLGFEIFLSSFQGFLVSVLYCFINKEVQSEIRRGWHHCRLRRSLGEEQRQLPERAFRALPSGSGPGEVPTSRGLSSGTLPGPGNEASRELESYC

[5] = target: T2, hGIPR; experiment: Functional cAMP activity in the presence of 1% HSA; details: read-out: cAMP Rel EC50, hGIPR
[6] = target: hGcgR (Homo sapiens, UniProt P47871); experiment: Functional cAMP activation in the presence of 0.1% casein (no HSA); details: read-out: Relative cAMP EC50, hGcgR;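 also: intracellular cAMP rise after 30 min at 37 °C, read by HTRF against a cAMP standard curve, scaled from buffer only (0%) to maximal control ligand response (100%)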
Chain of hGcgR (P47871 26-477): as the sequence (P47871 26-477) above

| Substance | EC50 [1] [nM] | EC50 [2] [nM] | EC50 [3] [nM] | EC50 [4] [nM] | EC50 [5] [nM] | EC50 [6] [nM] |
| --- | --- | --- | --- | --- | --- | --- |
| H-Y[Aib]QGT[αMePhe(2-F)]TSD[4Pal]SI[αMeL]LD[Orn]K([AEEA-γGlu-C18 diacid])AQ[αMe4Pal]EFI[dE][αMeY]LIEGGPSSGAPPPSGS-NH2 [Example 640] | 0.288 | 27.8 | 730 | 0.00696 | 0.591 | 9.5 |
| H-Y[Aib]QGT[αMePhe(2-F)]TSD[4Pal]SI[αMeL]LD[Orn]K([AEEA-γGlu-C18 diacid])AQ[αMe4Pal]EFI[dE][αMeY]LLEGGPSSGAPPPSGE-NH2 [Example 615] | 0.575 | 82.9 | 697 | 0.00825 | 0.95 | 3.93 |
| H-Y[Aib]QGT[αMePhe(2-F)]TSD[4Pal]SI[αMeL]LD[Orn]K([AEEA-γGlu-C18 diacid])AQ[αMe4Pal]EFI[dE][αMeY]LLEGGPSSGAPPPSGS-NH2 [Example 641] | 0.489 | 68.3 | 451 | 0.00819 | 0.832 | 3.72 |
| H-Y[Aib]QGT[αMePhe(2-F)]TSD[4Pal]SI[αMeL]LD[Orn]K([AEEA-γGlu-C18 diacid])AQ[αMe4Pal]EFI[dE][αMeY]LLEGGPSSGEPPPSGS-NH2 [Example 645] | 0.596 | 76.3 | 398 | 0.00724 | 0.863 | 3.25 |
| H-Y[Aib]QGT[αMePhe(2-F)]TSD[4Pal]SI[αMeL]LD[Orn]K([AEEA-γGlu-C18 diacid])AQ[αMe4Pal]EFI[dE][αMeY]LQEGGPSSGAPPPSGS-NH2 [Example 643] | 0.741 | 60.1 | 1170 | 0.0223 | 1.61 | 16 |
| H-Y[Aib]QGT[αMePhe(2-F)]TSD[4Pal]SI[αMeL]LD[Orn]K([AEEA-γGlu-C18 diacid])AQ[αMe4Pal]EFI[dE][αMeY]LQEGGPSSGEPPPSGS-NH2 [Example 648] | 1.76 | 86.5 | 1170 | 0.0392 | 1.4 | 20.3 |
| H-Y[Aib]QGT[αMePhe(2-F)]TSD[4Pal]SI[αMeL]LD[Orn]K([AEEA-γGlu-C18 diacid])AQ[αMe4Pal][Orn]FI[dE][αMeY]LEEGGPSSGEPPPEGT-NH2 [Example 506] | 2.14 | 224 | 2330 | 0.308 | 28.7 | 17.1 |
| H-Y[Aib]QGT[αMePhe(2-F)]TSD[4Pal]SI[αMeL]LD[Orn]K([AEEA-γGlu-C18 diacid])AQ[αMe4Pal][Orn]FI[dE][αMeY]LIEGGPSSGAPPPESE-NH2 [Example 755] | 0.175 | 23.9 | 274 | 0.00805 | 1.39 | 2.31 |
| H-Y[Aib]QGT[αMePhe(2-F)]TSD[4Pal]SI[αMeL]LD[Orn]K([AEEA-γGlu-C18 diacid])AQ[αMe4Pal][Orn]FI[dE][αMeY]LIEGGPSSGAPPPESEE-NH2 [Example 756] | 0.212 | 28.2 | 372 | 0.0096 | 1.61 | 2.26 |
| H-Y[Aib]QGT[αMePhe(2-F)]TSD[4Pal]SI[αMeL]LD[Orn]K([AEEA-γGlu-C18 diacid])AQ[αMe4Pal][Orn]FI[dE][αMeY]LIEGGPSSGDPPPEGE-NH2 [Example 727] | 0.271 | 24.1 | 287 | 0.0109 | 1.09 | 2.38 |
| H-Y[Aib]QGT[αMePhe(2-F)]TSD[4Pal]SI[αMeL]LD[Orn]K([AEEA-γGlu-C18 diacid])AQ[αMe4Pal][Orn]FI[dE][αMeY]LIEGGPSSGDPPPEGTE-NH2 [Example 731] | 0.267 | 27.4 | 291 | 0.0117 | 1.27 | 2.35 |
| H-Y[Aib]QGT[αMePhe(2-F)]TSD[4Pal]SI[αMeL]LD[Orn]K([AEEA-γGlu-C18 diacid])AQ[αMe4Pal][Orn]FI[dE][αMeY]LIEGGPSSGDPPPEGTGE-NH2 [Example 732] | 0.268 | 27.2 | 327 | 0.0118 | 1.26 | 2.18 |
| H-Y[Aib]QGT[αMePhe(2-F)]TSD[4Pal]SI[αMeL]LD[Orn]K([AEEA-γGlu-C18 diacid])AQ[αMe4Pal][Orn]FI[dE][αMeY]LIEGGPSSGDPPPETE-NH2 [Example 730] | 0.248 | 33 | 216 | 0.0122 | 1.29 | 2.46 |
| H-Y[Aib]QGT[αMePhe(2-F)]TSD[4Pal]SI[αMeL]LD[Orn]K([AEEA-γGlu-C18 diacid])AQ[αMe4Pal][Orn]FI[dE][αMeY]LIEGGPSSGEPPPEAE-NH2 [Example 676] | 0.267 | 24.4 | 208 | 0.0106 | 1.07 | 2.34 |
| H-Y[Aib]QGT[αMePhe(2-F)]TSD[4Pal]SI[αMeL]LD[Orn]K([AEEA-γGlu-C18 diacid])AQ[αMe4Pal][Orn]FI[dE][αMeY]LIEGGPSSGEPPPEGTGE-NH2 [Example 680] | 0.246 | 28.6 | 256 | 0.01 | 1.04 | 2 |
| H-Y[Aib]QGT[αMePhe(2-F)]TSD[4Pal]SI[αMeL]LD[Orn]K([AEEA-γGlu-C18 diacid])AQ[αMe4Pal][Orn]FI[dE][αMeY]LIEGGPSSGEPPPESE-NH2 [Example 677] | 0.252 | 20.8 | 190 | 0.0111 | 1.03 | 2.21 |
| H-Y[Aib]QGT[αMePhe(2-F)]TSD[4Pal]SI[αMeL]LD[Orn]K([AEEA-γGlu-C18 diacid])AQ[αMe4Pal][Orn]FI[dE][αMeY]LIEGGPSSGEPPPESEE-NH2 [Example 753] | 0.271 | 38.2 | 351 | 0.0127 | 1.86 | 2.7 |
| H-Y[Aib]QGT[αMePhe(2-F)]TSD[4Pal]SI[αMeL]LD[Orn]K([AEEA-γGlu-C18 diacid])AQ[αMe4Pal][Orn]FI[dE][αMeY]LIEGGPSSGEPPPETE-NH2 [Example 678] | 0.251 | 22.1 | 245 | 0.0132 | 0.929 | 2.28 |
| H-Y[Aib]QGT[αMePhe(2-F)]TSD[4Pal]SI[αMeL]LD[Orn]K([AEEA-γGlu-C18 diacid])AQ[αMe4Pal][Orn]FI[dE][αMeY]LIEGGPSSGEPPPSGS-NH2 [Example 706] | 0.19 | 23.7 | 240 | 0.00911 | 0.913 | 2.18 |
| H-Y[Aib]QGT[αMePhe(2-F)]TSD[4Pal]SI[αMeL]LD[Orn]K([γGlu-γGlu-C18 diacid])AQ[αMe4Pal]EFI[dE][αMeY]LAEGGPSSGAPPPSGS-NH2 [Example 646] | 2.58 | 90.5 | 1260 | 0.0336 | 1.09 | 23.1 |
| H-Y[Aib]QGT[αMePhe(2-F)]TSD[4Pal]SI[αMeL]LD[Orn]K([γGlu-γGlu-C18 diacid])AQ[αMe4Pal]EFI[dE][αMeY]LIEGGPSSGAPPPSGE-NH2 [Example 616] | 0.29 | 28.9 | 734 | 0.00727 | 0.467 | 6.58 |
